Experimental data published in PMC6214026, “PSMA-Oriented Target Delivery of Novel Anticancer Prodrugs: Design, Synthesis, and Biological Evaluations of Oligopeptide-Camptothecin Conjugates” (International Journal of Molecular Sciences, 2018).
Where two headings read alike, the source gives them in different places.

Assays:
[1] = test system: LNCaP-FGC cells (PSMA-expressing); assay: MTT cytotoxicity assay, LNCaP-FGC; format: cell-based, human; conditions: 72 h, read-out: IC50 LNCaP-FGC
Method: (§1) The cytotoxicities of PSMA-activated prodrug CPT-HT-J-ZLn and PSMA hydrolysate CPT-D-GLn were evaluated by MTT assays on PSMA-expressing (PSMA^+) cancer cell LNCaP-FGC, non-PSMA-expressing (PSMA^−) cancer cells HepG2, MCF-7, Hela, DU145, and PC-3, and normal cells MDCK, LO2, respectively, using CPT as a positive control.
(§2) The human prostate cancer cell line (LNCaP-FGC), human prostate cancer cell line (PC-3), human prostate cancer cell line (DU-145), human breast cancer cell line (MCF-7), human hepatocellular carcinoma cell line (HepG2), human cervical cancer cell line (Hela), were obtained from the Chinese Academy of Medical Sciences and Peking Union Medical College. The cultures of the cells were maintained as a monolayer in RPMI 1640 or DMEM supplemented with 10% (v/v) heat inactivated fetal bovine serum and 1% (v/v) enicillin/streptomycin (Corning, New York, NY, USA) and incubated at 37 °C in a humidified atmosphere with 5% CO2. The tested compounds were dissolved in DMSO (Sigma, St. Louis, MO, USA) and added at required concentrations to the cell culture.
(§3) The cytotoxicity of all the tested compounds was evaluated in vitro via the MTT method against PSMA-expressing LNCaP-FGC cells and non-PSMA-expressing cells HepG2, Hela, MCF-7, DU145, PC-3 cells using CPT as the positive control. Tumor cells growing in the logarithmic phase were seeded in 96-well plates at a density 3 × 10^3 cells/well and incubated overnight. The following day, cells were then treated with serial dilutions of the tested compounds for 72 h. At the end of this incubation, 20 µL of 5 mg/mL methylthiazol tetrazolium (MTT) was added to each well and incubation proceeded at 37 °C for another 4 h. After the supernatant medium was thrown away, 150 µL dimethylsulphoxide (DMSO) were added to each well and absorbance was measured at 490 nm using a plate reader (BIORAD 550 spectrophotometer, Bio-rad Life Science Development Ltd., Berkeley, CA, USA). Experiments were performed in triplicate and the values were the average of three (n = 3) independent experiments. The concentration of the compound that results in 50% growth inhibition corresponds to the IC50. Tumor cell growth inhibitory rate was calculated using Equation (1): % inhibition = (1 − Sample group OD/Control group OD) × 100%(1)

[2] = test system: MCF-7 cells (non-PSMA-expressing); assay: cells; format: cell-based, human; conditions: read-out: IC50 MCF-7
Method: as §1, §2, §3

[3] = test system: DU145 cells (non-PSMA-expressing); assay: cells; format: cell-based, human; conditions: read-out: IC50 DU145
Method: as §1, §2, §3

[4] = test system: HepG2 cells (non-PSMA-expressing); assay: cells; format: cell-based, human; conditions: read-out: IC50 HepG2
Method: as §1, §2, §3

[5] = test system: PC-3 cells (non-PSMA-expressing); assay: cells; format: cell-based, human; conditions: read-out: IC50 PC-3
Method: as §1, §2, §3

[6] = test system: HeLa cells (non-PSMA-expressing); assay: MTT cytotoxicity assay, HeLa; format: cell-based, human; conditions: 72 h, mean ± SD, n = 3
Method: as §1
The tested compounds were dissolved in DMSO (Sigma, St. Louis, MO, USA) and added at required concentrations to the cell culture.
as §3, with “experiments.” for “experiments. The concentration of the compound that results in 50% growth inhibition corresponds to the IC50. Tumor cell growth inhibitory rate was calculated using Equation (1): % inhibition = (1 − Sample group OD/Control group OD) × 100%(1)”

MDCK cells = assay: cells; format: cell-based; conditions: 72 h, read-out: IC50 MDCK
Method: as §1, §3

LO2 cells = assay: cells; format: cell-based; conditions: read-out: IC50 LO2
Method: as §1, §3

SMILES	IC50 ([1]; Homo sapiens) [µM]	IC50 ([2]; Homo sapiens, MCF7, 72 h) [µM]	IC50 ([3]; Homo sapiens, DU-145, 72 h) [µM]	IC50 ([4]; Homo sapiens, HepG2, 72 h) [µM]	IC50 ([5]; Homo sapiens, PC-3, 72 h) [µM]	IC50 ([6]; Homo sapiens, HeLa) [µM]	IC50 (MDCK cells; Canis lupus familiaris, MDCK) [µM]	IC50 (LO2 cells; Homo sapiens, L02, 72 h) [µM]	IC50 ([1]; MTT, mean ± SD, n = 3, PSMA+) [µM]	IC50 ([2]; MTT, 72 h, mean ± SD, n = 3) [µM]	IC50 ([3]; MTT, 72 h, mean ± SD, n = 3) [µM]	IC50 ([4]; MTT, 72 h, mean ± SD, n = 3) [µM]	IC50 ([5]; MTT, 72 h, mean ± SD, n = 3) [µM]	IC50 [6] [µM]	IC50 (MDCK cells; MTT, normal cells) [µM]	IC50 (LO2 cells; MTT, 72 h, normal cells) [µM]
CC[C@@]1(OC(=O)CCCNC(=O)[C@@H](N)CCC(=O)O)C(=O)OCc2c1cc1n(c2=O)Cc2cc3ccccc3nc2-1 [CPT-D-GL4, (S)-4-amino-5-((4-(((S)-4-ethyl-3,14-dioxo-3,4,12,14-tetrahydro-1H-pyrano[3′,4′:6,7]indolizino[1,2-b]quinolin-4-yl)oxy)-4-oxobutyl)amino)-5-oxopentanoic acid]	3.68 ± 0.5	4.03 ± 0.3	4.89 ± 0.01	> 40	14.9 ± 1	> 40	0.23 ± 0.1	0.4 ± 0.15	–	–	–	–	–	–	–	–
CC[C@@]1(OC(=O)CCCCCNC(=O)[C@H](CCC(=O)N[C@@H](CCC(=O)N[C@@H](CCC(=O)N[C@@H](CC(=O)OC(C)(C)C)C(=O)N[C@@H](CCC(=O)OC(C)(C)C)C(=O)OC(C)(C)C)C(=O)OC(C)(C)C)C(=O)OC(C)(C)C)NC(=O)OC(C)(C)C)C(=O)OCc2c1cc1n(c2=O)Cc2cc3ccccc3nc2-1 [CPT-HT-J-L6, 1,11,16,3-tetra-tert-butyl 28-((S)-4-ethyl-3,14-dioxo-3,4,12,14-tetrahydro-1H-pyrano[3′,4′:6,7]indolizino[1,2-b]quinolin-4-yl) (3S,6S,11S,16S,21S)-6-(2-(tert-butoxy)-2-oxoethyl)-21-((tert-butoxycarbonyl)amino)-5,8,13,18,22-pentaoxo-4,7,12,17,23-pentaazaoctacosane-1,3,11,16,28-pentacarboxylate]	–	–	–	–	–	–	–	–	> 40	> 40	> 40	> 40	> 40	> 40	> 40	> 40
CC[C@@]1(OC(=O)CN)C(=O)OCc2c1cc1n(c2=O)Cc2cc3ccccc3nc2-1 [CPT-B-L2, (S)-4-ethyl-3,14-dioxo-3,4,12,14-tetrahydro-1H-pyrano[3′,4′:6,7]indolizino[1,2-b]quinolin-4-yl glycinate]	0.38 ± 0.1	4.11 ± 3.09	0.12 ± 0.09	> 40	5.19 ± 0.3	10 ± 2	5.16 ± 1.2	5.61 ± 1.4	–	–	–	–	–	–	–	–
CC[C@@]1(OC(=O)CCCN)C(=O)OCc2c1cc1n(c2=O)Cc2cc3ccccc3nc2-1 [CPT-B-L4, (S)-4-ethyl-3,14-dioxo-3,4,12,14-tetrahydro-1H-pyrano[3′,4′:6,7]indolizino[1,2-b]quinolin-4-yl 4-aminobutanoate]	0.37 ± 0.02	1.58 ± 2.42	0.25 ± 0.13	> 40	1 ± 0.1	4.37 ± 0.5	3.2 ± 2	1.36 ± 0.3	–	–	–	–	–	–	–	–
CC[C@@]1(OC(=O)CCCCCNC(=O)[C@@H](N)CCC(=O)O)C(=O)OCc2c1cc1n(c2=O)Cc2cc3ccccc3nc2-1 [CPT-D-GL6, (S)-4-amino-5-((6-(((S)-4-ethyl-3,14-dioxo-3,4,12,14-tetrahydro-1H-pyrano[3′,4′:6,7]indolizino[1,2-b]quinolin-4-yl)oxy)-6-oxohexyl)amino)-5-oxopentanoic acid]	8.17 ± 1	17.2 ± 3	3.97 ± 0.16	> 40	12.5 ± 0.8	> 40	4 ± 0.42	1.5 ± 0.6	–	–	–	–	–	–	–	–
CC[C@@]1(OC(=O)CNC(=O)[C@@H](N)CCC(=O)N[C@@H](CCC(=O)N[C@@H](CCC(=O)N[C@@H](CC(=O)O)C(=O)N[C@@H](CCC(=O)O)C(=O)O)C(=O)O)C(=O)O)C(=O)OCc2c1cc1n(c2=O)Cc2cc3ccccc3nc2-1 [CPT-HT-J-ZL2, ((S)-4-((S)-4-((S)-4-amino-5-((2-(((S)-4-ethyl-3,14-dioxo-3,4,12,14-tetrahydro-1H-pyrano[3′,4′:6,7]indolizino[1,2-b]quinolin-4-yl)oxy)-2-oxoethyl)amino)-5-oxopentanamido)-4-carboxybutanamido)-4-carboxybutanoyl)-L-aspartyl-L-glutamic acid]	–	–	–	–	–	–	–	–	2.04 ± 0.3	0.11 ± 0.08	1.16 ± 0.28	> 40	1 ± 0.1	3.54 ± 2.54	1.27 ± 0.3	1.68 ± 0.45
CC[C@@]1(OC(=O)CCCCCCCCCCCN)C(=O)OCc2c1cc1n(c2=O)Cc2cc3ccccc3nc2-1 [CPT-B-L12, (S)-4-ethyl-3,14-dioxo-3,4,12,14-tetrahydro-1H-pyrano[3′,4′:6,7]indolizino[1,2-b]quinolin-4-yl 12-aminododecanoate]	1.93 ± 1.03	5.76 ± 0.86	7.32 ± 1.43	> 40	6.45 ± 0.42	> 40	5.2 ± 0.88	2.63 ± 0.84	–	–	–	–	–	–	–	–
CC[C@@]1(OC(=O)CCCCCCCCCCCNC(=O)[C@H](CCC(=O)N[C@@H](CCC(=O)N[C@@H](CCC(=O)N[C@@H](CC(=O)OC(C)(C)C)C(=O)N[C@@H](CCC(=O)OC(C)(C)C)C(=O)OC(C)(C)C)C(=O)OC(C)(C)C)C(=O)OC(C)(C)C)NC(=O)OC(C)(C)C)C(=O)OCc2c1cc1n(c2=O)Cc2cc3ccccc3nc2-1 [CPT-HT-J-L12, 1,11,16,3-tetra-tert-butyl 34-((S)-4-ethyl-3,14-dioxo-3,4,12,14-tetrahydro-1H-pyrano[3′,4′:6,7]indolizino[1,2-b]quinolin-4-yl) (3S,6S,11S,16S,21S)-6-(2-(tert-butoxy)-2-oxoethyl)-21-((tert-butoxycarbonyl)amino)-5,8,13,18,22-pentaoxo-4,7,12,17,23-pentaazatetratriacontane-1,3,11,16,34-pentacarboxylate]	–	–	–	–	–	–	–	–	> 40	> 40	> 40	> 40	> 40	> 40	> 40	> 40
CC[C@@]1(OC(=O)CNC(=O)[C@@H](N)CCC(=O)O)C(=O)OCc2c1cc1n(c2=O)Cc2cc3ccccc3nc2-1 [CPT-D-GL2, (S)-4-amino-5-((2-(((S)-4-ethyl-3,14-dioxo-3,4,12,14-tetrahydro-1H-pyrano[3′,4′:6,7]indolizino[1,2-b]quinolin-4-yl)oxy)-2-oxoethyl)amino)-5-oxopentanoic acid]	3.68 ± 0.36	0.3 ± 0.05	0.4 ± 0.05	> 40	1.5 ± 0.2	> 40	0.26 ± 0.14	0.16 ± 0.07	–	–	–	–	–	–	–	–
